For 15 compounds, TGI results are on record in PubChem BioAssay (NCI).

The TGI is the concentration at which net growth stops. Low values mean greater sensitivity of the cells, high ones lower sensitivity of the cells.

Some test systems named below: TK-10 renal; EKVX NSCLC; OVCAR-3 ovarian; A498 renal; IGROV1 ovarian; NCI-H460 lung; UO-31 renal; SF-539 CNS; OVCAR-5 ovarian.
Assay in all cases: DTP human tumour cell line panel, 48 h

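Results reflect a 48-hour exposure of cells in 96-well plates to compound at five concentrations. Definition used: TGI = concentration required for complete inhibition of growth.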 A value given as a limit tells only on which side of the number the result lay.

As to `OCCCc1cnco1`, the TGI in the assay on TK-10 renal, in the assay on EKVX NSCLC, in the assay with OVCAR-3 ovarian, with A498 renal, in the assay on IGROV1 ovarian and with NCI-H460 lung was greater than 100 µM in each case. In addition, the total growth inhibition concentration (TGI) with UO-31 renal, with SF-539 CNS and in the assay with OVCAR-5 ovarian was greater than 100 µM each time.

Consider `CC(C)(CN1CCCCC1)C(=O)CC(SCCN)c1ccc(Cl)cc1` (configuration not stated), for which the TGI in the assay with TK-10 renal stood at 5.19 µM; in the assay on EKVX NSCLC, 4.53 µM; in the assay on OVCAR-3 ovarian, 3.96 µM; in the assay on A498 renal, 6.65 µM; with IGROV1 ovarian, 8.48 µM; in the assay with NCI-H460 lung it was 5.43 µM. The figures for the TGI in the assay on UO-31 renal, with SF-539 CNS and in the assay on OVCAR-5 ovarian were 13.3 µM, 4.21 µM and 13.2 µM, respectively.

As for `O=[N+]([O-])c1ccc(/C(Cl)=C/c2ccc(/C=C(\Cl)c3ccc([N+](=O)[O-])cc3[N+](=O)[O-])cc2)c([N+](=O)[O-])c1`, the TGI with TK-10 renal, in the assay on EKVX NSCLC, in the assay with A498 renal, in the assay on IGROV1 ovarian, in the assay on NCI-H460 lung and in the assay with UO-31 renal was greater than 100 µM in each case. The concentration for total growth inhibition (TGI) in the assay with SF-539 CNS and in the assay with OVCAR-5 ovarian was greater than 100 µM in each case.

As for `C#CCn1c(=O)c2cccnc2n(CC#C)c1=O`, the TGI in the assay on TK-10 renal, with NCI-H460 lung and with OVCAR-5 ovarian was greater than 100 µM in each case.

For `C=C1C(=O)c2cc3c(cc2C(c2cc(OC)c(OC)c(OC)c2)[C@@H]1C(=O)O)OCO3` (some centres not stated), the total growth inhibition concentration (TGI) in the assay on TK-10 renal was greater than 100 µM; in the assay with EKVX NSCLC, greater than 100 µM; with OVCAR-3 ovarian, 72.8 µM; with A498 renal it was greater than 100 µM; in the assay with IGROV1 ovarian, greater than 100 µM; in the assay with NCI-H460 lung, greater than 100 µM. Also, the TGI in the assay on UO-31 renal and in the assay on SF-539 CNS was greater than 100 µM throughout.

For `CC(=O)SC(SC(C)=O)SC(C)=O`, the TGI in the assay on TK-10 renal, with EKVX NSCLC, in the assay with OVCAR-3 ovarian, in the assay on A498 renal, in the assay on IGROV1 ovarian and in the assay with NCI-H460 lung was greater than 100 µM each time. The TGI with UO-31 renal, with SF-539 CNS and in the assay on OVCAR-5 ovarian was greater than 100 µM each time.

As to `CCc1cccc(CC)c1NC(=O)CC1SC(N)=NC1=O` (configuration not stated), the TGI in the assay with TK-10 renal, in the assay with EKVX NSCLC, in the assay with OVCAR-3 ovarian, in the assay with A498 renal, in the assay on IGROV1 ovarian and in the assay on NCI-H460 lung was greater than 100 µM throughout. Moreover, the TGI in the assay on UO-31 renal, in the assay on SF-539 CNS and with OVCAR-5 ovarian was greater than 100 µM throughout.

As for `O=c1nc(N2CCCC2)nc(N2CCCC2)s1`, the concentration for total growth inhibition (TGI) in the assay with TK-10 renal, in the assay with EKVX NSCLC, in the assay with A498 renal, with IGROV1 ovarian, with NCI-H460 lung and in the assay with UO-31 renal was greater than 100 µM throughout. For the same compound, the total growth inhibition concentration (TGI) in the assay on SF-539 CNS and in the assay with OVCAR-5 ovarian was greater than 100 µM throughout.

Turning to `Cc1ccc(NC(=O)/C(=N\NC(N)=S)C(C#N)c2ccccc2C)cc1C` (configuration not stated), the TGI with TK-10 renal, in the assay with EKVX NSCLC, in the assay on OVCAR-3 ovarian, with A498 renal, with IGROV1 ovarian and with NCI-H460 lung was greater than 100 µM each time. Besides, the total growth inhibition concentration (TGI) in the assay with UO-31 renal, in the assay with SF-539 CNS and in the assay on OVCAR-5 ovarian was greater than 100 µM throughout.

For `CCc1nc2ccccc2c(=O)n1/N=C(\N=Nc1ccc(Cl)cc1)c1ccccc1`, the concentration for total growth inhibition (TGI) in the assay with TK-10 renal was 78.3 µM; in the assay on EKVX NSCLC it was 75.2 µM; in the assay on OVCAR-3 ovarian, 57.1 µM; in the assay with A498 renal it was greater than 100 µM; in the assay with IGROV1 ovarian it was greater than 100 µM; in the assay with NCI-H460 lung it was greater than 100 µM. In addition, the figures for the TGI in the assay with UO-31 renal, in the assay on SF-539 CNS and with OVCAR-5 ovarian were 76.8 µM, 51.8 µM and greater than 100 µM, respectively.

Regarding `C=C(COC(C)=O)CC(/C=C(\C)CC/C=C(\C)CO)OC(C)=O` (configuration not stated), the TGI with TK-10 renal, in the assay with EKVX NSCLC, with OVCAR-3 ovarian, with A498 renal, in the assay on IGROV1 ovarian and in the assay on NCI-H460 lung was greater than 100 µM throughout. Also, the TGI in the assay on UO-31 renal, in the assay on SF-539 CNS and in the assay with OVCAR-5 ovarian was greater than 100 µM in each case.

As for `CCCCN(CCCC)CC(C(=O)Nc1ccc([N+](=O)[O-])cc1[N+](=O)[O-])/C(C)=N\NC(=O)C[N+](C)(C)C` (configuration not stated), the TGI with TK-10 renal, in the assay with EKVX NSCLC, in the assay with OVCAR-3 ovarian, in the assay with A498 renal, with IGROV1 ovarian and with NCI-H460 lung was greater than 100 µM each time. The TGI in the assay with UO-31 renal, in the assay with SF-539 CNS and with OVCAR-5 ovarian was greater than 100 µM throughout.

Turning to `CC(=O)Oc1c(Br)ccc2cc(C(Br)Br)c(C(=O)c3ccccc3)nc12`, the TGI with TK-10 renal is 31.9 µM; in the assay with EKVX NSCLC, 39.4 µM; in the assay with IGROV1 ovarian, 76.5 µM; in the assay on NCI-H460 lung, 44.4 µM; with UO-31 renal, 35.9 µM; in the assay with SF-539 CNS, 42.3 µM. Also, the TGI in the assay with OVCAR-5 ovarian worked out at 31.1 µM.

On to `CCOC(=O)/C(=C/c1ccccc1Br)P(=O)(OCC)OCC`, for which the total growth inhibition concentration (TGI) came out at 7.98 µM in the assay with TK-10 renal; 8.16 µM with EKVX NSCLC; 5.46 µM with OVCAR-3 ovarian; 8.61 µM in the assay with A498 renal; 10.1 µM in the assay with IGROV1 ovarian; 10.7 µM in the assay on NCI-H460 lung. Also, the concentration for total growth inhibition (TGI) with SF-539 CNS came out at 6.22 µM; in the assay on OVCAR-5 ovarian it was 5.92 µM.

`COC(=O)c1nc(C(=O)OC)c2c([nH]c3ccccc32)c1C(=O)OC`: the TGI was greater than 100 µM with TK-10 renal; greater than 100 µM in the assay with OVCAR-3 ovarian; greater than 100 µM in the assay with A498 renal; greater than 100 µM in the assay with IGROV1 ovarian; greater than 100 µM in the assay with NCI-H460 lung; 75.9 µM with UO-31 renal. The TGI in the assay with SF-539 CNS and with OVCAR-5 ovarian was greater than 100 µM each time.
